From ChEMBL document CHEMBL4028801, “A multifactorial approach to hepatobiliary transporter assessment enables improved therapeutic compound development” (Toxicol Sci, 2013) come the findings set out here.

The nature of series [1]: Cmax in human at 100 to 300 mg, po QD after 24 hrs. Type of series: ADME, organism-based. Conditions: in vivo.
Series [2] has as its target T1, ATP-binding cassette sub-family C member 4 (Homo sapiens, UniProt O15439).
T1 sequence (O15439 whole entry): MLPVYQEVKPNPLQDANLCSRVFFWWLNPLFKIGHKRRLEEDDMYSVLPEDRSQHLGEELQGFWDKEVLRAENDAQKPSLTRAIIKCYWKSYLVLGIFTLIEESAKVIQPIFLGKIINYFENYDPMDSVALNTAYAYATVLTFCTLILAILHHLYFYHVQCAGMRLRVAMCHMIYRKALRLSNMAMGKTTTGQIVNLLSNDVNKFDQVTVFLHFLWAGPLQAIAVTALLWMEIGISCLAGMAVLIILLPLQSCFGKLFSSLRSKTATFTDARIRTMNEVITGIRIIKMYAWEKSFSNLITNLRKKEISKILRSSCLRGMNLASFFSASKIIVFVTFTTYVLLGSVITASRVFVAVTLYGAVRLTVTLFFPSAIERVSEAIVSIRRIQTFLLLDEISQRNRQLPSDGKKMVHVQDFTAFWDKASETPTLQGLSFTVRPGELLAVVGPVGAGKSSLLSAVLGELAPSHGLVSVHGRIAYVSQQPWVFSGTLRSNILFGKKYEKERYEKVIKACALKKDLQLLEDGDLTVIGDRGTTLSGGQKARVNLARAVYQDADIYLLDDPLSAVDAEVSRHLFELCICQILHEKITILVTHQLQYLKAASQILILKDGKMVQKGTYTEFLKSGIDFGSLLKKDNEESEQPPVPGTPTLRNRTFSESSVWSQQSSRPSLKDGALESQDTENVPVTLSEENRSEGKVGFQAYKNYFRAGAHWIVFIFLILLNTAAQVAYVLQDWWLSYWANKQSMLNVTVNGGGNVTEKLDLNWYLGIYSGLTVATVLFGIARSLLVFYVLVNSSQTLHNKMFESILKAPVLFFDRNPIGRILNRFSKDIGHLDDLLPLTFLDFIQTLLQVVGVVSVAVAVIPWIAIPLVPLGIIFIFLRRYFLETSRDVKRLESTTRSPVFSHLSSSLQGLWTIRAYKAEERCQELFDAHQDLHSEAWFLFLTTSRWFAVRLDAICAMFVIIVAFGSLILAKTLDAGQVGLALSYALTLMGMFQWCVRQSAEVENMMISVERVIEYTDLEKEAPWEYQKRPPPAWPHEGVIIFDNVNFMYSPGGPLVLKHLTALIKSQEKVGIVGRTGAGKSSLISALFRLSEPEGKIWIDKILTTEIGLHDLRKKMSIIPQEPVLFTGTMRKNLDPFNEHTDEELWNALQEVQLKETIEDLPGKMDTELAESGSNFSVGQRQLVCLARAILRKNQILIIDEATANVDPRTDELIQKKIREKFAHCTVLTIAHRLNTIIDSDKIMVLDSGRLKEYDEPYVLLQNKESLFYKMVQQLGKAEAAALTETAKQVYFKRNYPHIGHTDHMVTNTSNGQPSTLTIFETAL
Briefly: Inhibition of human MRP4 overexpressed in Sf9 cell membrane vesicles assessed as uptake of [3H]-estradiol-17beta-D-glucuronide in presence of ATP and GSH measured after 20 mins by membrane vesicle transport assay. Type of series: ADME, cell-based.

The target of series [3] is ATP-binding cassette sub-family C member 2 (Homo sapiens, UniProt Q92887). Description: Inhibition of human MRP2 overexpressed in Sf9 cell membrane vesicles assessed as uptake of [3H]-estradiol-17beta-D-glucuronide in presence of ATP and GSH measured after 20 mins by membrane vesicle transport assay.
Chain of ATP-binding cassette sub-family C member 2 (Q92887 whole entry): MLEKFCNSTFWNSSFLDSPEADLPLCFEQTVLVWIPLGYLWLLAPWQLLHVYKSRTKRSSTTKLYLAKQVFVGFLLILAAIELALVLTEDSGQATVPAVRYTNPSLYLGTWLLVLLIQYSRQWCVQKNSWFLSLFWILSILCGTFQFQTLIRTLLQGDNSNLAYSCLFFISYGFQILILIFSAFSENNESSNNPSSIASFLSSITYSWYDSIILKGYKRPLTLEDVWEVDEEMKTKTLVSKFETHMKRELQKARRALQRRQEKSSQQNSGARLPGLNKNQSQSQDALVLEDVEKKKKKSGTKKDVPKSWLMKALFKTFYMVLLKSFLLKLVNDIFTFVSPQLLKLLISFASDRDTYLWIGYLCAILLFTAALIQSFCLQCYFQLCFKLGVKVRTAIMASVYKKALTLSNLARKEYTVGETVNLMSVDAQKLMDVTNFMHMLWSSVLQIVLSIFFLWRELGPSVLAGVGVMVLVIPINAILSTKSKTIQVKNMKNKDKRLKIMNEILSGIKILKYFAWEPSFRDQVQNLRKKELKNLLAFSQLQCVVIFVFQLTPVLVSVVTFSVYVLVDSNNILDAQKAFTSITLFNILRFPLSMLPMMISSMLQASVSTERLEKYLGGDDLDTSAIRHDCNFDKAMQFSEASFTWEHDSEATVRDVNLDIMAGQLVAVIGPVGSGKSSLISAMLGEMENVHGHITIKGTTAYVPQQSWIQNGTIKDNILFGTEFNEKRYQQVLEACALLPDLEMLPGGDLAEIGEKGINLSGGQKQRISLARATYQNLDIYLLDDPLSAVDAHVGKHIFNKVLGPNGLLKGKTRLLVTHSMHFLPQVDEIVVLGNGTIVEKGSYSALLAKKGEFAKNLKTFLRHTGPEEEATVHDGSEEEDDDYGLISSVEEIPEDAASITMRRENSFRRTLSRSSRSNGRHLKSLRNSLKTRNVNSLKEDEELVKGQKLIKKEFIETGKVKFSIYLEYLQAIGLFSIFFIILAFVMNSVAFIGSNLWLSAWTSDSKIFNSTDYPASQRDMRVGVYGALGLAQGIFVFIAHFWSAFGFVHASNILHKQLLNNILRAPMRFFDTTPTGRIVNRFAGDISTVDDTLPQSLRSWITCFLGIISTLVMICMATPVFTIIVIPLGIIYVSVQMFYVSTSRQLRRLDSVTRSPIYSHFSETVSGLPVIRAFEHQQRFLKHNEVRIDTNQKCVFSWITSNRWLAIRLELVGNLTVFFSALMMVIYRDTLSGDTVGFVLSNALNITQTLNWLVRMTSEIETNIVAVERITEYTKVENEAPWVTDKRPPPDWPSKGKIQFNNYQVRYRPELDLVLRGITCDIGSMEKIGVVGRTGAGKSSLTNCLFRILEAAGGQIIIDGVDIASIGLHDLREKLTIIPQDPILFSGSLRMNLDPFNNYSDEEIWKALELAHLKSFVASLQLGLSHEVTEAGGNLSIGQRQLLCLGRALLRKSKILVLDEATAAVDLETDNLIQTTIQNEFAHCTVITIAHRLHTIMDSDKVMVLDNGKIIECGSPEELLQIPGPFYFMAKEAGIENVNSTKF
For series [4], the target named is ATP-binding cassette sub-family C member 3 (Homo sapiens, UniProt O15438). Briefly: Inhibition of human MRP3 overexpressed in Sf9 insect cell membrane vesicles assessed as uptake of [3H]-estradiol-17beta-D-glucuronide in presence of ATP and GSH measured after 10 mins by membrane vesicle transport assay. It is filed as ADME, cell-based.
Chain of ATP-binding cassette sub-family C member 3 (O15438 whole entry): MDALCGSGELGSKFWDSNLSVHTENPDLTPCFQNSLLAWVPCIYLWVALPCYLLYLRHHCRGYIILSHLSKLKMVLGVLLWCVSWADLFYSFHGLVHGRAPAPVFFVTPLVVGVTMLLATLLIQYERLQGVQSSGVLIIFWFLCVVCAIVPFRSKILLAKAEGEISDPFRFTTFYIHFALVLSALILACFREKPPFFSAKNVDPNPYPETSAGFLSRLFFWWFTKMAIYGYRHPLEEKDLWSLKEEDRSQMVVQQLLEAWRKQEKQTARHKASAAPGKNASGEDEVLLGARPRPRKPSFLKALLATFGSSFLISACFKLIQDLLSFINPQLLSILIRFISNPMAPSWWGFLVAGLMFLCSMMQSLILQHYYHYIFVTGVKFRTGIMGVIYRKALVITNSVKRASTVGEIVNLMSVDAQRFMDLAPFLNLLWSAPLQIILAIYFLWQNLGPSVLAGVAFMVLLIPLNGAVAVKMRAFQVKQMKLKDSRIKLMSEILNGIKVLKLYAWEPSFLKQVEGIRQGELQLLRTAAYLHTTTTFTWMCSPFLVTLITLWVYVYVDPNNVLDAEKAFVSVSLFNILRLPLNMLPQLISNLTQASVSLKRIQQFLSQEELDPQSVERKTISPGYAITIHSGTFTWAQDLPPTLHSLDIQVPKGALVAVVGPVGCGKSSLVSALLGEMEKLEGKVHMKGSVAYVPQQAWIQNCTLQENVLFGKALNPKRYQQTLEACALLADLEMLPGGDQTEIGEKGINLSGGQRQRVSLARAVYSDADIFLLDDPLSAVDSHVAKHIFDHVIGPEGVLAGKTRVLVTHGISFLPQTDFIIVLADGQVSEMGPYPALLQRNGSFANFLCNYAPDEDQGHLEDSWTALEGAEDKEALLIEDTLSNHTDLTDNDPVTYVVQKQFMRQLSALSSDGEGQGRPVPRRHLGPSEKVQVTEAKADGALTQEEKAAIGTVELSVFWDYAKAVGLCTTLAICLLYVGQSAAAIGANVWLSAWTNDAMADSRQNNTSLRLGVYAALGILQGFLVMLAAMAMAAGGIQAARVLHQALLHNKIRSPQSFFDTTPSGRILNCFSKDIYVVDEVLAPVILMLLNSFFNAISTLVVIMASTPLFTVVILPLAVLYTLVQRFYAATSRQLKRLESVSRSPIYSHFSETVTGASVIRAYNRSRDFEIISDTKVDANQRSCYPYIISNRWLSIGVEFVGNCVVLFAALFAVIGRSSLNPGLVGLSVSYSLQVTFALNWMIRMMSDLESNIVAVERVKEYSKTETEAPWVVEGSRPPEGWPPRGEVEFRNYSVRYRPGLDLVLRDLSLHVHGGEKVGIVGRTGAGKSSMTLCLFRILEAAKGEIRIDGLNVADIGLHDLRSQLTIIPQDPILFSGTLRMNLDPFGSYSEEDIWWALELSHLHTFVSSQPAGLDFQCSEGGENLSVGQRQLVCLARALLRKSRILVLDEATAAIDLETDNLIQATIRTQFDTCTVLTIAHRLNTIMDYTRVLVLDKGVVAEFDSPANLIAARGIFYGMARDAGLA
Series [5] can be described thus: Ratio of drug concentration at steady state in human at 100 to 300 mg, po QD after 24 hrs to IC50 for human MRP3 overexpressed in Sf9 insect cells. It is filed as ADME, organism-based. Conditions: in vivo.
Series [6] can be described thus: Ratio of drug concentration at steady state in human at 100 to 300 mg, po QD after 24 hrs to IC50 for human BSEP overexpressed in Sf9 insect cells. Type of series: ADME, organism-based. Conditions: in vivo.
Series [7] is described as follows: Ratio of drug concentration at steady state in human at 100 to 300 mg, po QD after 24 hrs to IC50 for human MRP4 overexpressed in Sf9 insect cells. Type of series: ADME, organism-based. Conditions: in vivo.
A short description of series [8]: Ratio of drug concentration at steady state in human at 100 to 300 mg, po QD after 24 hrs to IC50 for human MRP2 overexpressed in Sf9 insect cells. It is filed as ADME, organism-based. Conditions: in vivo.
A short description of series [9]: Drug concentration at steady state in human at 100 to 300 mg, po QD after 24 hrs. It is filed as ADME, organism-based. Conditions: in vivo, read-out: Css.
Series [10] is described as follows: Ratio of drug concentration at steady state in human at 3 mg, po after 24 hrs to IC50 for human MRP4 overexpressed in Sf9 insect cells. It is filed as ADME, organism-based. Conditions: in vivo.
Series [11] can be described thus: AUC in human at 3 mg, po QD after 24 hrs. Type of series: ADME, organism-based. The arrangement: time < 24 hr, dose 3 mg, route oral. Conditions: in vivo.
For the next series, the target named is Bile salt export pump (Homo sapiens, UniProt O95342). Description: Inhibition of human BSEP overexpressed in Sf9 cell membrane vesicles assessed as uptake of [3H]-taurocholate in presence of ATP measured after 15 to 20 mins by membrane vesicle transport assay. It is filed as ADME, cell-based.
Chain of Bile salt export pump (O95342 whole entry): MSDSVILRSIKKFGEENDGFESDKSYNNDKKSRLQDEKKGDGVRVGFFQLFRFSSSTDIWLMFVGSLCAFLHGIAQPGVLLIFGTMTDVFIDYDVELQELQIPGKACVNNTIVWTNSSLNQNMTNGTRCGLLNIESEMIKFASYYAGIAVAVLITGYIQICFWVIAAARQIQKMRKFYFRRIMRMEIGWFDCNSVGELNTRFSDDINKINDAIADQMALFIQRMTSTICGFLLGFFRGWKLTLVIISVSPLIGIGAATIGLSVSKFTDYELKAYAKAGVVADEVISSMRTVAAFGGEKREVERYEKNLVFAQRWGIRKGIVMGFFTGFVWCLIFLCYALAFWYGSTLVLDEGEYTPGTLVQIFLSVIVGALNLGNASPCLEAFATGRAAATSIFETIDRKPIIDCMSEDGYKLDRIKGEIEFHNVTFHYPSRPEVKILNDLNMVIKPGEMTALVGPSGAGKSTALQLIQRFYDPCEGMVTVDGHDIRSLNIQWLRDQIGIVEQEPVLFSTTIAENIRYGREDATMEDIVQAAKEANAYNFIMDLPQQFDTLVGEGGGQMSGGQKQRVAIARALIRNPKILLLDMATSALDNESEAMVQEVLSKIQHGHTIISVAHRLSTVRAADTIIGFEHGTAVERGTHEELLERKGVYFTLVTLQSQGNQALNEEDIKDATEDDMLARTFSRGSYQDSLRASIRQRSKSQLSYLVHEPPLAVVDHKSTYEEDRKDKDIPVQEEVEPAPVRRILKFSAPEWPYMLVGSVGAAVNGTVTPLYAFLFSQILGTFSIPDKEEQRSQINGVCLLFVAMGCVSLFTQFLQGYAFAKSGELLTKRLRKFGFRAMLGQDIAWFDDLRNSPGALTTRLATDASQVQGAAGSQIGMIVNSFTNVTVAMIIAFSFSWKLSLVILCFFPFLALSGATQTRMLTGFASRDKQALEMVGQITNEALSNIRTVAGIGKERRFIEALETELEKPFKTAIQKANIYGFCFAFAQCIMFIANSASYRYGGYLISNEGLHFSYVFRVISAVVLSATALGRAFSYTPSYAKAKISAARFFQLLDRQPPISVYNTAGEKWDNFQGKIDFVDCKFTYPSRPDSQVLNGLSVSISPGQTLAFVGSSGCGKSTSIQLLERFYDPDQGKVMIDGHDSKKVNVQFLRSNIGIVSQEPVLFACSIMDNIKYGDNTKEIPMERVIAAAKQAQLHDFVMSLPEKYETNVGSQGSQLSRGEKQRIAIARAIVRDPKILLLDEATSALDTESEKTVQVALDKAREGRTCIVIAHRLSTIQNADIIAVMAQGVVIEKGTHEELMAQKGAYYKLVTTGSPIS
Series [12] in a line: Drug concentration at steady state in human at 3 mg, po QD after 24 hrs. Type of series: ADME, organism-based. Conditions: in vivo, read-out: Css.
A short description of series [13]: Ratio of drug concentration at steady state in human at 3 mg, po after 24 hrs to IC50 for human BSEP overexpressed in Sf9 insect cells. It is filed as ADME, organism-based. Conditions: in vivo.
Series [14] in a line: Ratio of drug concentration at steady state in human at 25 to 50 mg, po QD after 24 hrs to IC50 for human BSEP overexpressed in Sf9 insect cells. It is filed as ADME, organism-based. Conditions: in vivo.
Series [15] can be described thus: Ratio of drug concentration at steady state in human at 25 to 50 mg, po QD after 24 hrs to IC50 for human MRP4 overexpressed in Sf9 insect cells. Conditions: in vivo. Type of series: ADME, organism-based.
Series [16] is described as follows: AUC in human at 25 to 50 mg, po QD after 24 hrs. Type of series: ADME, organism-based. Conditions: in vivo.
A short description of series [17]: Drug concentration at steady state in human at 25 to 50 mg, po QD after 24 hrs. It is filed as ADME, organism-based. Conditions: in vivo, read-out: Css.
Series [18] in a line: Ratio of drug concentration at steady state in human at 1 to 4 mg, po QD after 24 hrs to IC50 for human MRP3 overexpressed in Sf9 insect cells. Type of series: ADME, organism-based. Conditions: in vivo.
A short description of series [19]: Ratio of drug concentration at steady state in human at 1 to 4 mg, po QD after 24 hrs to IC50 for human MRP4 overexpressed in Sf9 insect cells. It is filed as ADME, organism-based. Conditions: in vivo.
Series [20] can be described thus: Ratio of drug concentration at steady state in human at 1 to 4 mg, po QD after 24 hrs to IC50 for human BSEP overexpressed in Sf9 insect cells. Conditions: in vivo. Type of series: ADME, organism-based.
A short description of series [21]: Drug concentration at steady state in human at 1 to 4 mg, po QD after 24 hrs. It is filed as ADME, organism-based. Conditions: in vivo, read-out: Css.
Series [22] is described as follows: AUC in human at 1 to 4 mg, po QD after 24 hrs. Conditions: in vivo. It is filed as ADME, organism-based.

Structures are written as SMILES.

In series [1], `CC(C)/N=c1\cc2n(-c3ccc(Cl)cc3)c3ccccc3nc-2cc1Nc1ccc(Cl)cc1` [CLOFAZIMINE] yielded a Cmax of 2.11 ng/mL. Further, the results for the IC50 in series [2], in [3] and in series [4] were 44.5 µM, 10.4 µM and 21 µM, respectively. Further, the Ratio in [5] turned out to be 0.004; in [6], 0.007; in series [7], 0.002; in series [8] it was 0.008. For the same molecule, the concentration at 24 h in series [9] came out at 88 nM.
Consider `C[C@]12CCC(=O)C=C1[C@@H]1C[C@@H]1[C@H]1[C@@H]3[C@@H]4C[C@@H]4[C@@]4(CCC(=O)O4)[C@@]3(C)CC[C@@H]12` [DROSPIRENONE], for which the IC50 in series [2] is 37.9 µM; in series [4], over 133 µM; on Bile salt export pump it was 16.4 µM. For the same molecule, the Ratio is given as 0.002 in series [10] and 0.006 in series [13]. Besides, the AUC at 24 h in [11] was 2.18 µM·h. The concentration at 24 h in [12] is 91 nM.
As for `COc1cc(C)c(/C=C/C(C)=C/C=C/C(C)=C/C(=O)O)c(C)c1C` [ACITRETIN], the Ratio is 0.007 in series [14] and 0.005 in series [15]. Besides, the figures for the 50% inhibitory concentration (IC50) (in series [2]; in series [4]; at Bile salt export pump) were 49 µM, over 133 µM and 38.2 µM, respectively. In series [16], this molecule yielded an AUC at 24 h of 6.13 µM·h. In series [17], the concentration at 24 h stood at 255 nM.
For the molecule `CCC1=C(C)CN(C(=O)NCCc2ccc(S(=O)(=O)NC(=O)N[C@H]3CC[C@H](C)CC3)cc2)C1=O` [GLIMEPIRIDE], the Ratio in series [18] was determined as 0.022; in series [19], 0.002; in series [20], 0.009. The IC50 in series [2] was 64 µM; in series [4], 6.39 µM. Moreover, the concentration at 24 h in [21] is 141 nM. Besides, the AUC at 24 h in series [22] was 3.4 µM·h.

What is called Cmax is the highest concentration seen after dosing. The IC50 is the concentration needed to halve the response being measured. For orientation: AUC means the area under the concentration-time curve, a measure of exposure. Low readings indicate low exposure, high ones high exposure.
